The text below walks through data of a melting point compilation (Tetko et al.).

Regarding `O=C(O)c1cc(C(=O)O)cc(S(=O)(=O)Cl)c1`, the melting point (commonly the temperature, or range, at which the solid turns liquid) lay within 217 to 219 °C.
Compound `COCCn1c(N)cc(=O)[nH]c1=O` gave a melting point of 90 to 92 °C.
As for `CC(Cl)c1ncc(-c2ccccc2)o1` (configuration not stated), the figure is 54 to 56 °C; as for `O=C(O)c1cnc2n1CCCC2`, 219 to 221 °C; as for `N#Cc1cc(N)ccc1OCC(F)(F)F`, 78 to 80 °C.
To `O=C1CCc2cc(Br)c(F)cc2N1` belongs 210 to 212 °C; to `Cc1ccccc1COc1cccc(N)c1`, 61 to 63 °C; to `Cc1c(C=O)c2ccccn2c1C=O`, 214 to 216 °C.
To `Nc1cc([N+](=O)[O-])ccc1C(=O)O` belongs 257 to 259 °C; to `COc1ccc(Br)cc1Cc1nnn[nH]1`, 180 to 182 °C.
`COC(=O)C1CCN(C(=O)c2ccc(Cl)c(Cl)c2)CC1` gave a melting point of 103 to 105 °C.
To `COc1ccc(C(=O)c2ccccc2Cl)cc1` belongs 77 to 79 °C; to `CCOC(=O)c1ccn(-c2cccc(N)c2)n1`, 97 to 99 °C.
In the case of `c1coc(-c2cc[nH]n2)c1`, the melting point lay within 101 to 103 °C.
As for `CSc1nc2nc(C)c(CC(=O)O)c(C)n2n1`, the figure is 275 to 277 °C; as for `O=C(O)C1CCCCN1S(=O)(=O)c1ccc(Br)s1` (configuration not stated), 125 to 127 °C.
To `O=C(Nc1ccc(O)cc1)c1cccs1` belongs 166 to 168 °C; to `CS(=O)(=O)Cc1cc(F)ccc1N`, 126 to 128 °C.
Consider `CC1CNc2cccnc2N1` (configuration not stated), for which the melting point lay within 110 to 112 °C.
Compound `CN(C)C(=O)c1ccc(Cl)c(S(=O)(=O)Cl)c1` came in with a melting point of 106 to 108 °C.
`N#Cc1cccc(-n2cncn2)c1` returned a melting point of 150 to 152 °C.
On to `O=C(O)c1ccc(-n2cncn2)c([N+](=O)[O-])c1`, for which the melting point lay within 274 to 276 °C.
Take `Cc1ccc2c(C3CCNCC3)c[nH]c2c1`: the melting point fell in the range of 176 to 178 °C.
As for `Cc1ccc(C=CC(=O)O)nc1`, the figure is 163 to 165 °C.
To `O=C1C2C3CC4C5C3C1C5C1(OCCO1)C42` (configuration not stated) belongs 73 to 75 °C.
As for `OCCOC1CCNCC1`, the figure is 61 to 63 °C.
Compound `CC(C)c1ccc(C(N)CC(=O)O)cc1` (configuration not stated) returned a melting point of 234 to 236 °C.
In turn, `CN(C)c1nc(-c2ccccc2)c(C=O)s1` returned a melting point of 123 to 125 °C.
`CNc1sccc1C#N` gave a melting point of 71 to 73 °C.
As to `NCc1cccc(NC(=O)C2CCCC2)c1`, the melting point lay in the range of 86 to 88 °C.
For `Cc1c(C(=O)O)cnn1-c1ccc(Br)cc1`, the melting point fell in the range of 211 to 213 °C.
As for `Nc1cccc(-n2ccnc2)c1`, the figure is 112 to 114 °C.
Regarding `Nc1cncc(Br)c1Cl`, the melting point fell in the range of 96 to 98 °C.
To `O=C(O)COc1ccc2cc(Br)ccc2c1` belongs 224 to 226 °C; to `O=C(O)C1=COCCO1`, 164 to 166 °C.
As for `CC(C)(C(=O)O)c1ccc(-c2ccccc2)cc1`, the figure is 173 to 175 °C.
To `NS(=O)(=O)c1ccc(F)c(C(=O)O)c1F` belongs 139 to 141 °C; to `CCCCNc1nnc(C)c2ccccc12`, 74 to 76 °C.
As for `CCCCn1c(=O)[nH]c(=O)c2c1nc(CCl)n2CC`, the melting point lay in the range of 172 to 174 °C.
The compound `Nc1c(Cl)ccc2nsnc12` returned a melting point of 89 to 91 °C.
As to `NC(=NO)c1ccc(O)cc1Cl`, the melting point is 153 to 155 °C.
Turning to `Nn1c(S)nnc1-c1ccncc1`, the melting point was in the range of 250 to 254 °C.
To `OC(CC1CCCN1)c1cccs1` (configuration not stated) belongs 63 to 65 °C; to `COC(=O)Nc1cccc(O)c1`, 95 to 97 °C; to `COc1ccc2nc(C)cc(C(=O)O)c2c1`, 279 to 281 °C.
Consider `O=C(O)CCn1cc(Br)cn1`, for which the melting point was in the range of 112 to 114 °C.
As for `Cc1cc(NC(N)=O)ccc1Br`, the figure is 185 to 187 °C.
As for `CC(C)(C)c1ccc(Oc2ccc(C(=O)O)cc2F)cc1`, the melting point fell in the range of 171 to 173 °C.
As for `CNc1cccc([N+](=O)[O-])c1`, the figure is 65 to 67 °C; as for `C=CCN(c1ccccc1Cl)S(=O)(=O)c1cccc(C(=O)O)c1`, 103 to 105 °C.
To `Nn1c(S)nnc1-c1ccc(Cl)cc1Cl` belongs 90 to 92 °C; to `Cn1ccnc1CC#N`, 39 to 41 °C; to `CC(=O)Nc1nnc(S)s1`, 267 to 269 °C.
As for `O=C(O)C1CCCN1C(=O)c1ccco1` (configuration not stated), the figure is 185 to 187 °C; as for `CCCc1c(C(=O)O)[nH]c(C)c1C(C)=O`, 214 to 216 °C.
As for `Nc1cccc(-c2nnc3n2CCCCC3)c1`, the melting point lay within 200 to 202 °C.
To `CC(=O)CC(=O)Nc1ccc(Br)cc1` belongs 137 to 139 °C; to `O=C(O)c1ccc(S(=O)(=O)Nc2ccccc2)cc1`, 225 to 228 °C; to `CCS(=O)(=O)c1ccccc1C(=O)O`, 49 to 53 °C.
To `COC(=O)c1cc(I)cc(S(=O)(=O)Cl)c1` belongs 67 to 69 °C; to `N#Cc1ccc2c(c1)C=CS2(=O)=O`, 149 to 151 °C; to `COC(C)c1nc(CC(=O)O)cs1` (configuration not stated), 154 to 156 °C.
To `CCOc1ccccc1N1CC(C(=O)O)CC1=O` (configuration not stated) belongs 104 to 108 °C; to `CC(=O)c1ccc(N2CCCC2)c(F)c1`, 36 to 38 °C.
In turn, `NC(=O)CCNCc1ccccc1` yielded a melting point of 164 to 166 °C.
To `O=Cc1ccc(-c2ccc(F)cc2)o1` belongs 79 to 81 °C.
To `Clc1cc2nnc(-c3ccccc3)n2cn1` belongs 155 to 157 °C.
`CC1Cc2ccccc2N1S(=O)(=O)c1cccc(C(=O)O)c1` (configuration not stated) came in with a melting point of 170 to 172 °C.
Regarding `O=C(O)c1cccc(S(=O)(=O)Nc2ccc(I)cc2)c1`, the melting point lay within 260 to 262 °C.
As for `NCCc1ccc(CO)cc1`, the figure is 35 to 37 °C.
For `O=C(O)c1sccc1S(=O)(=O)N1CCOCC1`, the melting point lay within 189 to 191 °C.
To `Cc1ccc(CNC(=O)CC#N)cc1` belongs 127 to 129 °C; to `CCCn1c(C)nnc1CO`, 59 to 61 °C.
To `O=S(=O)(Nc1nc2ccccc2nc1Cl)c1cccc(Cl)c1` belongs 158 to 160 °C; to `O=C(O)CCc1nnc(-c2ccsc2)o1`, 159 to 161 °C; to `O=C(O)c1cccc(F)c1I`, 148 to 150 °C.
As for `CC(=O)c1ccc(-c2ccncc2)cc1`, the figure is 93 to 95 °C; as for `Cc1csc(-c2cccc(O)c2)n1`, 108 to 110 °C.
In turn, `NS(=O)(=O)c1ccc(F)cc1[N+](=O)[O-]` registered a melting point of 153 to 155 °C.
`Cc1cc(=O)oc2cc(OCCBr)ccc12` came in with a melting point of 102 to 104 °C.
As for `O=S(=O)(c1ccc(CCl)cc1)C(F)F`, the figure is 63 to 65 °C; as for `COc1ccc(-n2c(C)cc(C(=O)CCl)c2C)cc1`, 91 to 95 °C.
To `CON(C)S(=O)(=O)c1cc(C(=O)O)ccc1Cl` belongs 228 to 230 °C.
As for `CC(=O)c1cc([N+](=O)[O-])ccc1F`, the melting point lay within 48 to 50 °C.
To `CNS(=O)(=O)c1ccccc1N1CCC(N)CC1` belongs 119 to 121 °C.
To `O=C(C1CCNCC1)N1CCc2ccccc21` belongs 67 to 69 °C; to `O=C(O)C1CC1c1ccc(F)c(F)c1` (configuration not stated), 89 to 91 °C; to `CCc1ccc(-c2ccc(C(=O)O)o2)cc1`, 170 to 172 °C.
To `N#Cc1ccc(Oc2ccc(C(=O)O)cc2)nc1` belongs 246 to 248 °C.
With `CSc1nc(C(=O)O)c2ccccn12`, the melting point was 202 to 204 °C.
To `O=C(O)CCN1C(=O)C(=Cc2ccc(F)cc2)SC1=S` belongs 135 to 137 °C.
To `N#Cc1c(CCl)cn2ccccc12` belongs 143 to 145 °C; to `COc1ccc(-c2nn(-c3ccccc3)cc2C=O)cc1`, 135 to 137 °C.
As for `COC(=O)c1n[nH]c(C)c1Cl`, the figure is 129 to 131 °C; as for `Nc1nc(SCc2ccccc2)ns1`, 104 to 106 °C.
The compound `O=Cc1nccn1CC(F)(F)F` returned a melting point of 50 to 52 °C.
In turn, `Cc1ccccc1-c1cc(N)on1` yielded a melting point of 99 to 101 °C.
Consider `COc1cc(-c2ccccc2)sc1C(=O)O`, for which the melting point lay within 167 to 169 °C.
To `CC(=O)Nc1nc(CCl)cs1` belongs 159 to 161 °C; to `O=C(CCl)Nc1cccc(C(=O)O)c1`, 220 to 222 °C.
The compound `Cc1ccnc(N)c1N` had a melting point of 111 to 113 °C.
To `O=C(O)CCCNc1nc2ccccc2s1` belongs 110 to 112 °C; to `O=C(O)c1cccc(-c2nnco2)c1`, 239 to 241 °C.
As for `CC(C)(C)C1CCN(S(=O)(=O)Cl)CC1`, the figure is 69 to 71 °C.
To `CCOC(=O)c1csc(Cc2ccc(NC(=O)OC(C)(C)C)cc2)n1` belongs 135 to 137 °C; to `CSc1ccc(OC(C)C(=O)O)cc1` (configuration not stated), 94 to 96 °C; to `O=S(=O)(Cl)c1ccc(OCC2CCCCC2)cc1`, 82 to 84 °C.
`FC(F)(F)CNc1ccncc1` registered a melting point of 157 to 159 °C.
To `COC(=O)C(=O)CC(=O)c1ccc(OC)cc1OC` belongs 101 to 103 °C.
As for `Cn1ncc2c(N)ncnc21`, the figure is 264 to 266 °C; as for `c1cc(-c2ccn[nH]2)ccn1`, 154 to 156 °C; as for `CCOC(=O)c1cnc2ccc(Cl)cn2c1=O`, 137 to 139 °C.
As for `Cc1nn(-c2ccccc2)c(N2CCCC2)c1C=O`, the figure is 71 to 73 °C; as for `O=C(CO)N1CCc2ccccc2C1`, 99 to 101 °C.
Compound `CC(C)(C)OC(=O)N1CC(=O)NC(=O)C1` yielded a melting point of 129 to 131 °C.
As for `N#Cc1ccc(N2CCOC2=O)cc1`, the figure is 149 to 151 °C.
To `O=C(O)c1ccc(Oc2ccc(Cl)cn2)cc1` belongs 215 to 217 °C; to `NC(=O)NCCCCCC(=O)O`, 175 to 177 °C; to `CC1(c2ccc3c(c2)OCCCO3)NC(=O)NC1=O` (configuration not stated), 192 to 194 °C.
As for `O=[N+]([O-])C=Cc1ccc(SC(F)(F)F)cc1`, the figure is 136 to 138 °C; as for `O=C(O)c1ccc(CS(=O)(=O)c2ccccc2)cc1`, 297 to 299 °C; as for `Cc1ccc(F)c(-n2nnnc2CCl)c1`, 51 to 53 °C.
